As usually defined, the EC50 is the midpoint of the concentration-response curve.

*1 amine or outer side, *2 acyl side, *3 side chain or, on linkers, in order; H or OH if unused. Where a SMILES comes first, the peptide text is derived from it. Where no end group is shown, it is not given here. Side-chain parts run from the residue outwards. [ ]: non-standard residue; d: D form. The star is where a group is joined. X3 = CC(C)CCC[C@@H](C)[C@H]1CC[C@H]2[C@@H]3CC=C4C[C@@H](OC(=O)CCOCCOCCOCCOCCNC(=O)C*)CC[C@]4(C)[C@H]3CC[C@]12C; γGlu = O=C(O)[C@H](CCC(=O)[*:2])N[*:1]; mPEG2 40kDa = C3 = Cys(mPEG)2 40 kDa; Palmitoyl = CCCCCCCCCCCCCCCC(=O)*; Met(O) = CS(=O)CC[C@H](N)C(=O)O; Ac4c = NC1(C(=O)O)CCC1; Aib = CC(C)(N)C(=O)O

The source of these data is patent US9593155B2, “Oxyntomodulin analogs” (priority 2009, dated 2017).

Data set [1] is described as follows: pI of the peptide analogs. Particulars: Table 10.
The test system of data set [2] is human mast cell line LAD2. Put plainly: mast cell degranulation counterscreen, beta-hexosaminidase release. Conditions: LAD2 cells, 30 minutes; read-out: Degranulation potency EC50. Format: cell-based. How it is done:
LAD2 cells (50,000 cells/well, 96-well plate) were incubated with compounds for 30 minutes. The degranulation of LAD2 cells was determined by quantification of the β-hexosaminidase released into the supernatants and in cell lysates after hydrolysis of 4-methylumbelliferyl-N-acetyl-β-D-glucosaminide. Results are expressed as percentage of β-hexosaminidase release, calculated as percent of total content.

For data set [3], the target named is T1, hGCGR (Homo sapiens, UniProt P47871). Put plainly: fluorescence cell based cAMP assay, CHO cells stably expressing GCGR. How it is done:
We initially screened peptides in fluorescence cell based assays that measure production of cyclic-AMP (cAMP), using CHO cell lines stably expressing either recombinant human GLP-1R or human GCGR. Determination of Mouse and human GLP-1R and GCGR Agonist Activity was essentially as follows. CHO cells stably expressing mouse or human GLP-1R or GCGR were grown in Iscove's Modified Dulbecco's Medium (IMDM), 10% FBS, 1 mM L-glutamine, penicillin-streptomycin (100 μ/mL) and 750 μg G418/mL for three-four days before harvesting using Enzymefree Dissociation Media (EFDM, Specialty Media). […] The assay was terminated with the addition of the LANCE kit Detection buffer as per the manufacturer's instructions. The plates were held an additional hour at room temperature, then increasing cAMP levels were detected by a decrease in TR-FRET signal as measured in an EnVision counter (PerkinElmer) in comparison to a standard curve of cAMP as per the manufacturer's instructions. Data were analyzed using the linear and nonlinear regression analysis software, GraphPad Prism.
The in vitro potencies shown in Table 10 or Table 11 were determined from the results of assays that were similar to either the cell-based cAMP assays described herein above (Table 10) or the cell-based cAMP assays described in International Published Application No. WO2008101017, which is incorporated herein in its entirety, in particular the cell-based cAMP assays described therein (Table 11).
(In general: cAMP levels reflect the balance of adenylyl cyclase and phosphodiesterase activity.)

The target in data set [4] is T1, hGCGR. Put plainly: cell-based cAMP assay as described in WO2008101017 (Table 11), hGCGR. An excerpt: This example presents tables showing the in vitro potencies of various peptide analogs at the human GLP-1 receptor (hGLP-1R) and the human glucagon receptor (hGCGR).

T1 sequence (P47871 26-477): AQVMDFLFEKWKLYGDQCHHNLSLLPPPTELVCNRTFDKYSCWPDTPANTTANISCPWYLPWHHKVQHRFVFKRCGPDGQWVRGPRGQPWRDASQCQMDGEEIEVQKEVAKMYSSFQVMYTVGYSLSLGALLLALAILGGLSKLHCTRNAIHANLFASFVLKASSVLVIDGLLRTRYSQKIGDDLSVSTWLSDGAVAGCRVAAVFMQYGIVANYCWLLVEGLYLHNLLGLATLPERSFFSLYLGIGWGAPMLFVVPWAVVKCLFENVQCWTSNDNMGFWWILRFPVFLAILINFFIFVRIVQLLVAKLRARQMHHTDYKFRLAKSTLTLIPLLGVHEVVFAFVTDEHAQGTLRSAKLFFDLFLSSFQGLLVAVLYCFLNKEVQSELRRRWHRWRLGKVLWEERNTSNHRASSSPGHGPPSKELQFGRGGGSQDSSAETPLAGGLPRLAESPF

For `CCCCCCCCCCCCCCCC(=O)N[C@@H](CCC(=O)N[C@@H](CCC(=O)NCCCC[C@H](NC(=O)[C@H](CC(=O)O)NC(=O)[C@H](CO)NC(=O)[C@@H](NC(=O)[C@H](Cc1ccccc1)NC(=O)[C@@H](NC(=O)CNC(=O)[C@H](CCC(N)=O)NC(=O)[C@@H](CO)NC(=O)[C@@H](N)Cc1c[nH]cn1)[C@@H](C)O)[C@@H](C)O)C(=O)N[C@@H](CO)C(=O)N[C@@H](CCCCN)C(=O)N[C@@H](Cc1ccc(O)cc1)C(=O)N[C@@H](CC(C)C)C(=O)N[C@@H](CC(=O)O)C(=O)N[C@@H](CCC(=O)O)C(=O)N[C@@H](CCCNC(=N)N)C(=O)N[C@@H](CCCNC(=N)N)C(=O)N[C@@H](C)C(=O)N[C@@H](CCC(N)=O)C(=O)N[C@@H](CC(=O)O)C(=O)N[C@@H](Cc1ccccc1)C(=O)N[C@H](C(=O)N[C@@H](CCC(N)=O)C(=O)N[C@@H](Cc1c[nH]c2ccccc12)C(=O)N[C@@H](CC(C)C)C(=O)N[C@@H](CCSC)C(=O)N[C@@H](CC(N)=O)C(=O)N[C@H](C(=O)N[C@@H](CCCCN)C(N)=O)[C@@H](C)O)C(C)C)C(=O)O)C(=O)O` [OXM411] (H-H[dS]QGTFTSDK([γGlu-γGlu-Palmitoyl])SKYLDERRAQDFVQWLMNTK-NH2; N-terminus assumed), the pI in data set [1] turned out to be 5.4. The EC50 in data set [2] is more than 10000 nM.

For `CCCCCCCCCCCCCCCC(=O)N[C@@H](CCC(=O)N[C@@H](CCC(=O)NCCCC[C@H](NC(=O)[C@H](CC(=O)O)NC(=O)[C@H](CO)NC(=O)[C@@H](NC(=O)[C@H](Cc1ccccc1)NC(=O)[C@@H](NC(=O)CNC(=O)[C@H](CCC(N)=O)NC(=O)C1(NC(=O)[C@@H](N)Cc2c[nH]cn2)CCC1)[C@@H](C)O)[C@@H](C)O)C(=O)N[C@@H](CO)C(=O)N[C@@H](CCCCN)C(=O)N[C@@H](Cc1ccc(O)cc1)C(=O)N[C@@H](CC(C)C)C(=O)N[C@@H](CC(=O)O)C(=O)N[C@@H](CCC(=O)O)C(=O)N[C@@H](CCCNC(=N)N)C(=O)N[C@@H](CCCNC(=N)N)C(=O)N[C@@H](C)C(=O)N[C@@H](CCC(N)=O)C(=O)N[C@@H](CC(=O)O)C(=O)N[C@@H](Cc1ccccc1)C(=O)N[C@H](C(=O)N[C@@H](CCC(N)=O)C(=O)N[C@@H](Cc1c[nH]c2ccccc12)C(=O)N[C@@H](CC(C)C)C(=O)N[C@@H](CCSC)C(=O)N[C@@H](CC(N)=O)C(=O)N[C@H](C(=O)N[C@@H](CCCCN)C(N)=O)[C@@H](C)O)C(C)C)C(=O)O)C(=O)O` [OXM417] (H-H[Ac4c]QGTFTSDK([γGlu-γGlu-Palmitoyl])SKYLDERRAQDFVQWLMNTK-NH2), the pI in data set [1] was 5.5. In addition, the EC50 at hGCGR [3] (hGCGR + 20% plasma EC50, Table 10, 20% plasma) was 0.4 nM.

In the case of `CCCCCCCCCCCCCCCC(=O)N[C@@H](CCC(=O)N[C@@H](CCC(=O)NCCCC[C@H](NC(=O)[C@H](C)NC(=O)[C@H](CCCNC(=N)N)NC(=O)[C@H](CCCNC(=N)N)NC(=O)[C@H](CO)NC(=O)[C@H](CC(=O)O)NC(=O)[C@H](CC(C)C)NC(=O)[C@H](Cc1ccc(O)cc1)NC(=O)[C@H](CCCCN)NC(=O)[C@H](CO)NC(=O)[C@H](Cc1ccc(O)cc1)NC(=O)[C@H](CC(=O)O)NC(=O)[C@H](CO)NC(=O)[C@@H](NC(=O)[C@H](Cc1ccccc1)NC(=O)[C@@H](NC(=O)CNC(=O)[C@H](CCC(N)=O)NC(=O)[C@@H](CO)NC(=O)[C@@H](N)Cc1c[nH]cn1)[C@@H](C)O)[C@@H](C)O)C(=O)N[C@@H](CC(=O)O)C(=O)N[C@@H](Cc1ccccc1)C(=O)N[C@H](C(=O)N[C@@H](CCC(N)=O)C(=O)N[C@@H](Cc1c[nH]c2ccccc12)C(=O)N[C@@H](CC(C)C)C(=O)N[C@@H](CCSC)C(=O)N[C@@H](CC(N)=O)C(=O)N[C@H](C(=O)N[C@@H](CCCCN)C(=O)N[C@@H](CCC(N)=O)C(=O)O)[C@@H](C)O)C(C)C)C(=O)O)C(=O)O` [OXM408], the EC50 in data set [2] was more than 10000 nM.

`CCCCCCCCCCCCCCCCCC(=O)N[C@@H](CCC(=O)N[C@@H](CCC(=O)NCCCC[C@H](NC(=O)[C@H](CC(=O)O)NC(=O)[C@H](CO)NC(=O)[C@@H](NC(=O)[C@H](Cc1ccccc1)NC(=O)[C@@H](NC(=O)CNC(=O)[C@H](CCC(N)=O)NC(=O)[C@@H](CO)NC(=O)[C@@H](N)Cc1c[nH]cn1)[C@@H](C)O)[C@@H](C)O)C(=O)N[C@@H](CO)C(=O)N[C@@H](CCCCN)C(=O)N[C@@H](Cc1ccc(O)cc1)C(=O)N[C@@H](CC(C)C)C(=O)N[C@@H](CC(=O)O)C(=O)NC(C)(C)C(=O)N[C@@H](CCCNC(=N)N)C(=O)N[C@@H](CCCNC(=N)N)C(=O)N[C@@H](C)C(=O)N[C@@H](CCC(N)=O)C(=O)N[C@@H](CC(=O)O)C(=O)N[C@@H](Cc1ccccc1)C(=O)N[C@H](C(=O)N[C@@H](CCC(N)=O)C(=O)N[C@@H](Cc1c[nH]c2ccccc12)C(=O)N[C@@H](CC(C)C)C(=O)N[C@@H](CCSC)C(=O)N[C@@H](CC(N)=O)C(=O)N[C@H](C(=O)N[C@@H](CCCCN)C(=O)N[C@@H](CCC(N)=O)C(=O)O)[C@@H](C)O)C(C)C)C(=O)O)C(=O)O` [MM132] had an EC50 at hGCGR [4] of 0.004 nM.

As for `CSCC[C@H](NC(=O)[C@H](CC(C)C)NC(=O)[C@H](Cc1c[nH]c2ccccc12)NC(=O)[C@H](CCC(N)=O)NC(=O)[C@@H](NC(=O)[C@H](Cc1ccccc1)NC(=O)[C@H](CC(=O)O)NC(=O)[C@H](CCC(N)=O)NC(=O)[C@H](C)NC(=O)[C@H](C)NC(=O)[C@H](CCC(=O)O)NC(=O)[C@H](CO)NC(=O)[C@H](CC(=O)O)NC(=O)[C@H](CC(C)C)NC(=O)[C@H](Cc1ccc(O)cc1)NC(=O)[C@H](CCCCN)NC(=O)[C@H](CO)NC(=O)[C@H](Cc1ccc(O)cc1)NC(=O)[C@H](CC(=O)O)NC(=O)[C@H](CO)NC(=O)[C@@H](NC(=O)[C@H](Cc1ccccc1)NC(=O)[C@@H](NC(=O)CNC(=O)[C@H](CCC(N)=O)NC(=O)[C@@H](CO)NC(=O)[C@@H](N)Cc1c[nH]cn1)[C@@H](C)O)[C@@H](C)O)C(C)C)C(=O)N[C@@H](CC(N)=O)C(=O)N[C@H](C(=O)N[C@@H](CCCCN)C(=O)N[C@@H](CSCC(=O)NCCOCCOCCOCCOCCC(=O)O[C@H]1CC[C@@]2(C)C(=CC[C@H]3[C@@H]4CC[C@H]([C@H](C)CCCC(C)C)[C@@]4(C)CC[C@@H]32)C1)C(N)=O)[C@@H](C)O` [OXM303] (H-H[dS]QGTFTSDYSKYLDSEAAQDFVQWLMNTKC(X3)-NH2; N-terminus assumed), the EC50 in data set [2] is 100 nM.

For “HαQGTFTSDYSC3YLDSRRAQDFVQWLmNTKRNRNNIA-CONH2 (H[Aib]QGTFTSDYSC(mPEG2 40kDa)YLDSRRAQDFVQWL[Met(O)]NTKRNRNNIA-NH2; not fully specified; printed as HαQGTFTSDYSC3YLDSRRAQDFVQWLmNTKRNRNNIA-CONH2) [OXM124]”, the “Receptor Selectivity” value with hGCGR [3] (GLP-1R/GCGR, Table 6) is 0/0.

For `CCCCCCCCCCCCCCCC(=O)N[C@@H](CCC(=O)N[C@@H](CCC(=O)NCCCC[C@H](NC(=O)[C@H](C)NC(=O)[C@H](CCCNC(=N)N)NC(=O)[C@H](CCCNC(=N)N)NC(=O)[C@H](CCC(=O)O)NC(=O)[C@H](CC(=O)O)NC(=O)[C@H](CC(C)C)NC(=O)[C@H](Cc1ccc(O)cc1)NC(=O)[C@H](CCCCN)NC(=O)[C@H](CO)NC(=O)[C@H](Cc1ccc(O)cc1)NC(=O)[C@H](CC(=O)O)NC(=O)[C@H](CO)NC(=O)[C@@H](NC(=O)[C@H](Cc1ccccc1)NC(=O)[C@@H](NC(=O)CNC(=O)[C@H](CCC(N)=O)NC(=O)[C@@H](CO)NC(=O)[C@@H](N)Cc1c[nH]cn1)[C@@H](C)O)[C@@H](C)O)C(=O)N[C@@H](CC(=O)O)C(=O)N[C@@H](Cc1ccccc1)C(=O)N[C@H](C(=O)N[C@@H](CCC(N)=O)C(=O)N[C@@H](Cc1c[nH]c2ccccc12)C(=O)N[C@@H](CC(C)C)C(=O)N[C@@H](CCSC)C(=O)N[C@@H](CC(N)=O)C(=O)N[C@H](C(=O)N[C@@H](CCCCN)C(N)=O)[C@@H](C)O)C(C)C)C(=O)O)C(=O)O` [OXM410] (H-H[dS]QGTFTSDYSKYLDERRAK([γGlu-γGlu-Palmitoyl])DFVQWLMNTK-NH2; N-terminus assumed), the EC50 in data set [2] was more than 10000 nM.

Compound `CCCCCCCCCCCCCC(=O)N[C@@H](CCC(=O)N[C@@H](CCC(=O)NCCCC[C@H](NC(=O)[C@H](CC(=O)O)NC(=O)[C@H](CO)NC(=O)[C@@H](NC(=O)[C@H](Cc1ccccc1)NC(=O)[C@@H](NC(=O)CNC(=O)[C@H](CCC(N)=O)NC(=O)[C@@H](CO)NC(=O)[C@@H](N)Cc1c[nH]cn1)[C@@H](C)O)[C@@H](C)O)C(=O)N[C@@H](CO)C(=O)N[C@@H](CCCCN)C(=O)N[C@@H](Cc1ccc(O)cc1)C(=O)N[C@@H](CC(C)C)C(=O)N[C@@H](CC(=O)O)C(=O)NC(C)(C)C(=O)N[C@@H](CCCNC(=N)N)C(=O)N[C@@H](CCCNC(=N)N)C(=O)N[C@@H](C)C(=O)N[C@@H](CCC(N)=O)C(=O)N[C@@H](CC(=O)O)C(=O)N[C@@H](Cc1ccccc1)C(=O)N[C@H](C(=O)N[C@@H](CCC(N)=O)C(=O)N[C@@H](Cc1c[nH]c2ccccc12)C(=O)N[C@@H](CC(C)C)C(=O)N[C@@H](CCSC)C(=O)N[C@@H](CC(N)=O)C(=O)N[C@H](C(=O)N[C@@H](CCCCN)C(=O)N[C@@H](CCC(N)=O)C(=O)O)[C@@H](C)O)C(C)C)C(=O)O)C(=O)O` [MM121] displayed an EC50 on hGCGR [4] of 0.006 nM.
